Measured values: US20070298444A1, “Methods and Compositions for Use in Evaluating and Treating Neoplastic Disease Conditions” (priority 2004, published 2007)

Assays:
Assay type in all cases: cell-based, human
HBEC [1] = assay: Paclitaxel treatment of HBEC, immunofluorescence microscopy
Description: (§1) HBEC were grown to 70% confluency on 1 well-chambered coverglass (Lab-Tek II, Nunc, #1.5). For all experiments except the localization of LTB4DH and Hs.516830 to the centriole in D51 cells, which required a stringent wash prior to fixation, standard fixation conditions were used. For standard conditions, culture media was removed and the cells were fixed directly in PBS containing 3% formaldehyde for 20 minutes. For stringent conditions, cells were rinsed quickly in PHEM buffer (60 mM Pipes, 25 mM Hepes, 10 mM EGTA, 1 mM Mg-acetate, pH 6.9), lysed for 2 minutes in PHEM containing 0.5% Triton X100, and fixed in PHEM containing 3% formaldehyde for 20 minutes. All steps subsequent to cell fixation were identical. Cells were incubated with PBS containing 50 mM NH4Cl for 10 minutes, permeabilized in PBS containing 0.1% Triton X-100 at RT for 3 minutes, and blocked one hour in block buffer (PBS containing 0.75% BSA [GIBCO]). Primary antisera was diluted in block buffer to a final concentration of 1-10 ug/ml, depending on the antibody, and incubated with cells for 1.5 hours at room temperature. Conjugated secondary antibodies (diluted in block buffer to 2 ug/ml) were incubated for 45 minutes at room temperature. Phalloidin conjugated to rhodamine (Molecular Probes, 1 unit/ml final) was included during secondary antibody incubation where indicated in the figure legend. DNA was stained with 300 nM DAPI (Molecular Probes) in PBS for 5 minutes, and the cells were mounted in Prolong Antifade (Molecular Probes). Wide-field fluorescence microscopy (DeltaVision, Applied Precision) and subsequent deconvolution was used for all images that dealt with fixed cells. A 0.2-micron z-plane was used throughout. Three-dimensional rendering of stacked images was done on Volocity 2.0 software (Improvision).
(§2) Primary cell cultures of human bronchial epithelial cells (HBEC) were purchased commercially (Cambrex, no retinoic acid) from two male donors and grown in BEGM medium (Cambrex) according to specifications. […]

[2] = system: MCF10A breast epithelial cells; assay: Paclitaxel treatment of MCF10A, immunofluorescence microscopy; details: 1 uM paclitaxel, 9 hours
HBEC [3] = assay: Nocodazole treatment and recovery of HBEC, immunofluorescence microscopy
Description: as §1, §2

SMILES | formation of ribbon-like structure (HBEC [1]; HBEC treated with paclitaxel versus absence of paclitaxel, antisera to OKL38, LTB4DH, RLA1, TRIM29) | increase in the number of mitotic figures (HBEC [1]; HBEC, 1 uM paclitaxel, 9 hours, DAPI stain of fixed cells) [fold] | mitotic spindle integrity based on microtubule localization (HBEC [1]; HBEC, 1 uM paclitaxel, 9 hours, alpha-tubulin immunofluorescence) | localization of ribbon-like structure [2] | presence of ribbon-like structure (HBEC [3]; nocodazole 20 minute exposure) | effect on cytoplasmic microtubules (HBEC [3]; nocodazole 20 minute exposure, alpha-tubulin antisera) | effect on actin fibers (HBEC [3]; nocodazole treatment then 20 minute recovery, phalloidin-rhodamine)
CC(=O)O[C@H]1C(=O)[C@@]2(C)[C@H]([C@H](OC(=O)c3ccccc3)[C@]3(O)C[C@H](OC(=O)[C@H](O)[C@@H](NC(=O)c4ccccc4)c4ccccc4)C(C)=C1C3(C)C)[C@]1(OC(C)=O)CO[C@@H]1C[C@@H]2O [paclitaxel] | promotes the formation of a ribbon-like structure in close proximity to mitotic DNA | 10 | no indication of an intact mitotic spindle in any cell | localization of a ribbon-like structure in the vicinity of condensed, mitotic DNA |  |  | 
COC(=O)Nc1nc2ccc(C(=O)c3cccs3)cc2[nH]1 [nocodazole] |  |  |  |  | uncharacteristically absent | sufficient to eliminate cytoplasmic MT | unaffected
